Data on 31 molecules can be found in patent US20250332173A1, “COMPOUNDS AND METHODS FOR MODULATING NUCLEIC ACID SPLICING” (REMIX THERAPEUTICS INC., priority 2021, published 2025).

The test system of one experiment is SMN2 mRNA. Briefly: RT-qPCR splicing assay, SMN2 canonical junction (CJ) mRNA. Format: cell-based, human. The following applies: Homo sapiens; Table 5 panel; canonical junction qPCR; compound concentration having 50% response in CJ decrease; read-out: SMN2 IC50 (decrease in CJ mRNA levels). An outline of the steps:
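K562/A673 cells, 11-pt 3-fold compound titration from 10 uM final, DMSO ≤0.25%, 24 h 37 °C 5% CO2; lyse (DNase I or Igepal/Tris buffer pH 7.4); RT-qPCR for CJ isoform vs housekeeping gene (GAPDH/GUSB/PPIA).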
(In general: In qPCR the cycle at which signal appears reflects the starting amount.)

For a further experiment, the system named is HTT. As to the kind of experiment: HiBiT protein abundance assay, HTT HiBiT K562 cell line. Format: cell-based, human. As to conditions: HiBiT K562 cell line, 24 hours, top dose 10 μM; read-out: Effect on protein abundance, HTT (IC50 category). An outline of the steps: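 K562 knock-in lines with endogenous HiBiT-tagged target, 10,000 cells/well in IMDM + FBS, treated 24 h at 37° C with 10-point 3-fold dilutions (top 10 μM final; DMSO ≤0.25%). Lytic Nano-Glo HiBiT luminescence normalized to untagged K562 baseline and DMSO controls; IC50 = concentration giving 50% abundance via four-parameter fit.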
(In general: With HiBiT, luminescence reflects the tagged protein that the partner subunit can reach.)

Experiment [1] deals with K562 (human chronic myelogenous leukemia) cells. Briefly: Cell Titer Glo 2.0 cell viability assay. Format: cell-based. The following applies: Homo sapiens, K562, 72 h, K562 cells, 72 hours, Cell Titer Glo 2.0; read-out: K562 GI50. Background: In ATP-based viability assays light output follows the ATP content of the culture.

As usually defined, the IC50 is the concentration needed to halve the response being measured. For orientation: GI50 means the concentration that inhibits growth by half. Take `Cc1cn2cc(-c3cc(F)c4c(=O)n([C@@H]5CCNC5)ccc4c3)cc(F)c2n1` (single isomer, unassigned) [Compound 395]: the results for the IC50 with SMN2 mRNA and in the experiment on HTT were less than 0.1 µM and 0.1 to 1 µM, respectively. Further, the GI50 in experiment [1] was 0.1 to 1 µM.

Regarding `Cc1cn2cc(-c3cc(F)c4c(=O)n([C@H]5CCNC5)ccc4c3)cc(F)c2n1` (single isomer, unassigned) [Compound 396], the results for the IC50 in the experiment with SMN2 mRNA and with HTT were less than 0.1 µM and 0.1 to 1 µM, respectively. The GI50 in experiment [1] lay within 0.1 to 1 µM.

As for `Cc1cn2cc(-c3ccc4c(=O)n([C@@H]5CCCNC5)ccc4c3)cc(F)c2n1` (single isomer, unassigned) [Compound 403], the IC50 was less than 0.1 µM with SMN2 mRNA and 1 to 10 µM in the experiment on HTT. Besides, the GI50 in experiment [1] lay within 1 to 10 µM.

With `Cc1cn2nc(-c3cc(F)c4c(=O)n([C@@H]5CCNC6(CC6)C5)ccc4c3)cc(C)c2n1` (single isomer, unassigned) [Compound 425], the IC50 with SMN2 mRNA and in the experiment on HTT was less than 0.1 µM in each case. The GI50 in experiment [1] is less than 0.1 µM.

In the case of `Cc1cn2nc(-c3cc(F)c4c(=O)n([C@H]5CCNC6(CC6)C5)ccc4c3)cc(C)c2n1` (single isomer, unassigned) [Compound 426], the IC50 in the experiment on SMN2 mRNA and in the experiment with HTT was less than 0.1 µM throughout. Further, the GI50 in experiment [1] is less than 0.1 µM.

`Cc1cn2nc(-c3ccc4c(=O)n([C@@H]5CCNC6(CC6)C5)ncc4c3)cc(C)c2n1` (stereo in doubt) [Compound 368, 2-[(7R)-4-azaspiro[2.5]octan-7-yl]-6-{2,8-dimethylimidazo[1,2-b]pyridazin-6-yl}phthalazin-1-one]: the half-inhibitory concentration (IC50) in the experiment with SMN2 mRNA and in the experiment with HTT was less than 0.1 µM each time. Further, the GI50 in experiment [1] lay within 0.1 to 1 µM.

In the case of `Cc1cn2nc(-c3cc(F)c4c(=O)n(C5CCNC5)ccc4c3)cc(C)c2n1` (stereo in doubt) [Compound 382, (R)-6-(2,8-dimethylimidazo[1,2-b]pyridazin-6-yl)-8-fluoro-2-(pyrrolidin-3-yl)isoquinolin-1(2H)-one], the half-inhibitory concentration (IC50) in the experiment with SMN2 mRNA is less than 0.1 µM; with HTT, 1 to 10 µM. Moreover, the GI50 in experiment [1] lay within 1 to 10 µM.

As to `Cc1cn2nc(-c3cc(F)c4c(=O)n(C5CCNC5)ccc4c3)cc(C)c2n1` (stereo in doubt) [Compound 392, (S)-6-(2,8-dimethylimidazo[1,2-b]pyridazin-6-yl)-8-fluoro-2-(pyrrolidin-3-yl)isoquinolin-1(2H)-one], the IC50 was less than 0.1 µM in the experiment with SMN2 mRNA and 1 to 10 µM with HTT. Besides, the GI50 in experiment [1] was in the range of 1 to 10 µM.

`Cc1cn2nc(-c3cc(C)c4c(=O)n(C5CCNC6(CC6)C5)ccc4c3)cc(C)c2n1` (stereo in doubt) [Compound 397, (S)-6-(2,8-dimethylimidazo[1,2-b]pyridazin-6-yl)-8-methyl-2-(4-azaspiro[2.5]octan-7-yl)isoquinolin-1(2H)-one]: the IC50 in the experiment with SMN2 mRNA and in the experiment on HTT was less than 0.1 µM in each case. In experiment [1], the GI50 lay in the range of 0.1 to 1 µM.

On to `Cc1cn2nc(-c3cc(C)c4c(=O)n(C5CCNC6(CC6)C5)ccc4c3)cc(C)c2n1` (stereo in doubt) [Compound 398, (R)-6-(2,8-dimethylimidazo[1,2-b]pyridazin-6-yl)-8-methyl-2-(4-azaspiro[2.5]octan-7-yl)isoquinolin-1(2H)-one], for which the IC50 in the experiment on SMN2 mRNA and in the experiment on HTT was less than 0.1 µM in each case. For the same molecule, the GI50 in experiment [1] was less than 0.1 µM.

Take `Cc1cn2nc(-c3ccc4c(=O)n(C5CCCNC5)ccc4c3)cc(C)c2n1` (stereo in doubt) [Compound 410, 6-{2,8-dimethylimidazo[1,2-b]pyridazin-6-yl}-2-[(3S)-piperidin-3-yl]isoquinolin-1-one]: the figures for the IC50 in the experiment with SMN2 mRNA and in the experiment on HTT were less than 0.1 µM and 0.1 to 1 µM, respectively. In experiment [1], the GI50 is 1 to 10 µM.

With `Cc1cn2nc(-c3ccc4c(=O)n(C5CCCNC5)ccc4c3)cc(C)c2n1` (stereo in doubt) [Compound 411, 6-{2,8-dimethylimidazo[1,2-b]pyridazin-6-yl}-2-[(3R)-piperidin-3-yl]isoquinolin-1-one], the IC50 in the experiment with SMN2 mRNA was 0.1 to 1 µM; in the experiment on HTT, 1 to 10 µM. Further, the concentration for 50% growth inhibition (GI50) in experiment [1] lay within 1 to 10 µM.

In the case of `Cc1cn2cc(-c3cc(F)c4c(=O)n(C5CCOC5)cnc4c3)cc(C#N)c2n1` (stereo in doubt) [Compound 499, (R)-6-(5-fluoro-4-oxo-3-(tetrahydrofuran-3-yl)-3,4-dihydroquinazolin-7-yl)-2-methylimidazo[1,2-a]pyridine-8-carbonitrile], the 50% inhibitory concentration (IC50) in the experiment on SMN2 mRNA and in the experiment on HTT was 0.1 to 1 µM in each case. In addition, in experiment [1], the GI50 lay within 0.1 to 1 µM.

As to `Cc1cn2cc(-c3cc(F)c4c(=O)n(C5CCOC5)cnc4c3)cc(C#N)c2n1` (stereo in doubt) [Compound 500, (S)-6-(5-fluoro-4-oxo-3-(tetrahydrofuran-3-yl)-3,4-dihydroquinazolin-7-yl)-2-methylimidazo[1,2-a]pyridine-8-carbonitrile], the IC50 with SMN2 mRNA and with HTT was 0.1 to 1 µM in each case. In addition, the GI50 in experiment [1] was in the range of 0.1 to 1 µM.

As for `Cn1cc2cc(-n3cnc4cc(C5=CC6CCC(C5)N6)ccc4c3=O)ccc2n1` (centres unmarked) [Compound 160], the IC50 with SMN2 mRNA and with HTT was greater than 10 µM throughout. Besides, the GI50 in experiment [1] is greater than 10 µM.

Consider `CN1C2C=C(c3ccc4c(=O)n(-c5ccc6nn(C)cc6c5)cnc4c3)CC1CC2` (centres unmarked) [Compound 161], for which the IC50 in the experiment on SMN2 mRNA and in the experiment on HTT was greater than 10 µM throughout. The GI50 in experiment [1] was greater than 10 µM.

For the molecule `Cn1cc2cc(-n3cnc4cc(NC5CCNCC5)ccc4c3=O)ccc2n1` [Compound 162], the IC50 in the experiment with SMN2 mRNA and in the experiment on HTT was greater than 10 µM in each case.

Regarding `CN1CCC(Nc2ccc3c(=O)n(-c4ccc5nn(C)cc5c4)cnc3c2)CC1` [Compound 163], the IC50 in the experiment with SMN2 mRNA and in the experiment with HTT was greater than 10 µM throughout. The GI50 in experiment [1] was greater than 10 µM.

Consider `Cn1cc2cc(-n3cnc4cc(C5CCNCC5)ccc4c3=O)ccc2n1` [Compound 172], for which the IC50 in the experiment with SMN2 mRNA and in the experiment on HTT was greater than 10 µM throughout. The GI50 in experiment [1] lay within 1 to 10 µM.

On to `Cc1cc(-c2ccc3c(=O)n(C4CCN(C)CC4)cnc3n2)cc2cn(C)nc12` [Compound 173], for which the IC50 in the experiment with SMN2 mRNA is 1 to 10 µM; with HTT, greater than 10 µM. For the same molecule, in experiment [1], the GI50 fell in the range of 1 to 10 µM.

For `Cc1cc(-c2ccc3c(=O)n(C4CCNCC4)cnc3c2)cc2cn(C)nc12` [Compound 174], the IC50 in the experiment with SMN2 mRNA is less than 0.1 µM; in the experiment with HTT, 0.1 to 1 µM. For the same molecule, the GI50 in experiment [1] is 0.1 to 1 µM.

As for `Cc1cn2cc(-c3cc(N)c4c(=O)n(C5CCNCC5)cnc4c3)cc(C#N)c2n1` [Compound 364, 6-[5-amino-4-oxo-3-(piperidin-4-yl)quinazolin-7-yl]-2-methylimidazo[1,2-a]pyridine-8-carbonitrile], the half-inhibitory concentration (IC50) in the experiment with SMN2 mRNA and in the experiment on HTT was greater than 10 µM in each case. For the same molecule, the GI50 in experiment [1] is greater than 10 µM.

For `Cn1cc2c(n1)CCN(c1cc(F)c3c(=O)n(C4CCNCC4)cnc3c1)C2` [Compound 365, 5-fluoro-7-(2-methyl-2,4,6,7-tetrahydro-5H-pyrazolo[4,3-c]pyridin-5-yl)-3-(piperidin-4-yl)quinazolin-4(3H)-one], the figures for the IC50 in the experiment on SMN2 mRNA and with HTT were 0.1 to 1 µM and greater than 10 µM, respectively. The GI50 in experiment [1] was greater than 10 µM.

With `Cc1cn2cc(-c3cc(F)c4c(=O)n(C5CCOC5)cnc4c3)cc(C#N)c2n1` (centres unmarked) [Compound 366, 6-[5-fluoro-4-oxo-3-(oxolan-3-yl)quinazolin-7-yl]-2-methylimidazo[1,2-a]pyridine-8-carbonitrile], the concentration for half-maximal inhibition (IC50) with SMN2 mRNA and with HTT was 1 to 10 µM each time. For the same molecule, the GI50 in experiment [1] fell in the range of 1 to 10 µM.

Take `Cc1cn2cc(-c3cc(F)c4c(=O)n(C5CCOCC5)cnc4c3)cc(C#N)c2n1` [Compound 367, 6-[5-fluoro-3-(oxan-4-yl)-4-oxoquinazolin-7-yl]-2-methylimidazo[1,2-a]pyridine-8-carbonitrile]: the IC50 with SMN2 mRNA and in the experiment on HTT was 0.1 to 1 µM throughout. Also, in experiment [1], the GI50 was 0.1 to 1 µM.

In the case of `Cc1cn2nc(-c3ccc4c(=O)n([C@H]5CCNC6(CC6)C5)ncc4c3)cc(C)c2n1` [Compound 369, 2-[(7S)-4-azaspiro[2.5]octan-7-yl]-6-{2,8-dimethylimidazo[1,2-b]pyridazin-6-yl}phthalazin-1-one], the IC50 in the experiment with SMN2 mRNA was less than 0.1 µM; in the experiment with HTT, 0.1 to 1 µM. The GI50 in experiment [1] fell in the range of 1 to 10 µM.

In the case of `Cc1cn2cc(-c3cc(F)c4c(=O)n(C5CCNCC5)ccc4c3)cc(F)c2n1` [Compound 370], the IC50 with SMN2 mRNA and in the experiment on HTT was less than 0.1 µM throughout. Moreover, the GI50 in experiment [1] was less than 0.1 µM.

With `Cc1cn2nc(-c3ccc4c(=O)n([C@H]5CCNC[C@H]5F)cnc4c3)cc(C)c2n1` [Compound 372], the IC50 in the experiment on SMN2 mRNA was less than 0.1 µM; in the experiment on HTT, 0.1 to 1 µM. In addition, the GI50 in experiment [1] lay in the range of 1 to 10 µM.

As to `Cc1cc(-c2ccc3c(=O)n(C4CCNC5(COC5)C4)cnc3c2)cc2cn(C)nc12` (centres unmarked) [Compound 375], the 50% inhibitory concentration (IC50) in the experiment with SMN2 mRNA and in the experiment on HTT was 1 to 10 µM in each case. The 50% growth inhibitory concentration (GI50) in experiment [1] is 1 to 10 µM.

With `Cc1cc(-c2ccc3c(=O)n([C@@H]4CCNC[C@H]4F)ncc3c2)cc2cn(C)nc12` [Compound 378], the results for the IC50 in the experiment on SMN2 mRNA and in the experiment on HTT were 0.1 to 1 µM and 1 to 10 µM, respectively. In addition, the GI50 in experiment [1] fell in the range of 1 to 10 µM.

Regarding `Cc1cn2nc(-c3ccc4c(=O)n([C@@H]5CCNC[C@H]5F)ncc4c3)cc(C)c2n1` [Compound 379], the IC50 with SMN2 mRNA and in the experiment with HTT was 0.1 to 1 µM each time. Also, the GI50 in experiment [1] lay within 1 to 10 µM.
